Measured values: patent US20230210994A1, “CELL-PENETRATING CONJUGATE SYSTEMS” (Danmarks Tekniske Universitet, priority 2019, published 2023)
Entries after “also recorded” stand apart in the source; their conditions may differ.

Assays:
[1] = In vivo insulin delivery and bioavailability experiment, oral enteric-coated capsule; design: species or system Sprague-Dawley rats
Protocol: […] Insulin dosage was estimated to be ˜120 I.U. The capsule was mechanically guided across the duodenum and rat-tail plasma samples were collected for a period of 3 hours (at specified periodic intervals). Blood glucose measurement was made with Glucometer and plasma insulin concentration via ELISA.

CT26 cells [2] = experiment: Uptake of Oxaliplatin by CT26 cells measured by ICP-MS; assay type: cell-based, mouse; details: for enhancement of OxPt internalization versus OxPt alone: 10 μM OxPt, 24 hours
Protocol: CT26 cells were seeded in 24-well plate (100.000 cells/mL/well) exposed to Oxaliplatin (Ox-Pt, 10 μM and 30 μM) with/and without conjugate the molar ratio of 1:1, 1:3 and 3:1 respectively. After 1, 4, 24 hours of incubation, media was discarded and the cells were washed with PBS twice, once with heparin (to remove anything associated externally with the cell membrane) and once more with PBS. Then the cells were detached from the wells using trypsin and cells were counted. Finally, each sample was diluted in HCl acid and further diluted in 2% HCl with (0.5 ppb Ir), then Pt content was measured in the ICP-MS.

CT-26 cells [3] = experiment: Cellular internalization of insulin (Novorapid) in CT-26 cells, MALDI-TOF; assay type: cell-based, mouse; details: commercial insulin (20 μl) + conjugate (20 μl), 4 hours
Protocol: MALDI-TOF is a standard technique for analysis of molecules based upon their mass/charge (m/z) ratio. In this study, the inventors exposed CT-26 cells with commercial insulin (20 μl) and conjugate system, 4-hydroxybutyl L-tryptophanate (20 μl). After 4 hours, the cells were sonicated (ruptured) and cell-debris removed; Resulting supernatant was subjected to MALDI analysis.

[4] = tested on: pig intestine (gut epithelium); experiment: Binding of conjugate system to the pig intestine (gut epithelium) ex vivo
Protocol: Biological functionality and compliance was tested utilizing intestinal tissue from pigs. A cross section of the pig intestine (1 cm^2)was cleaned and subjected to the conjugate (1 mg/ml; 3.65 mM). After incubation (1 hour) of said tissue with the conjugate system, 4-hydroxybutyl L-tryptophanate, the tissue was washed and excess mucous layer removed by gentle physical exfoliation (scrapping via a spatula).

mouse CD-4 (+) T-cells = experiment: Fluorescent tagging of T-cells, confocal Z-stack imaging; assay type: cell-based; details: 100 μL conjugate (1 mg/ml) added to 500 μL cell suspension, 24 hours
Protocol: 100 μL 4-hydroxybutyl L-tryptophanate conjugate (1 mg/ml) was added to the cell suspension solution (500 μL; 1×10^5 cells/mL) and incubated for 24 hours. Cells were washed with PBS buffer and analyzed via Z-stack imaging was to confirm internalization of the 4-hydroxybutyl L-tryptophanate conjugate. Cell imaging was done for 0, 24, 48 and 72 hours—though 24 hours was found the optimum time frame.

CT26 cells [5] = experiment: Internalization of resiquimod (R848) in CT26 cells detected by HPLC; assay type: cell-based, mouse
Protocol: CT26 cells were seeded in 24-well plates (10^5 cells/well). After 24 hours the cells were treated with either 100 or 300 μM concentration of resiquimod (R848) alone or in combination with the 4-hydroxybutyl L-tryptophanate conjugate. After 4 and 24 hours incubation cells were washed with cold PBS and with heparin solution (0.1 mg/mL heparin in PBS), and detached from the wells using trypsin. Then the cells were diluted in acetonitrile with 0.1% TFA and the amount of R848 was detected by HPLC.

CT-26 cells [6] = experiment: Internalization of Paclitaxel (PTX) in CT-26 cells measured by flow cytometry; assay type: cell-based, mouse
Protocol: There is a remarkable increment in the percentage of cells containing PTX when co-administered with the conjugate, especially after 24 hours incubation. (c) depicts the amount of PTX internalization expressed as mean fluorescence intensity (MFI).

CT-26 cells [7] = experiment: Ethidium-homodimer internalization in CT-26 cells, fluorescent confocal microscopy; assay type: cell-based, mouse
Protocol: CT-26 cells in culture were co-incubated with the conjugate system, 4-hydroxybutyl L-tryptophanate, (1 mg/ml) and Etidium-homodimer (2 μl/ml) for 1 hour and observed under fluorescent confocal microscope. Working ratio was set as 1:3 and two reaction sets comprising of higher (80 μl) loading and standard loading (40 μl ) were performed. Emission bandwidth was set as 490-550nm and 590-680 nm.

CT26 colon cancer cells = experiment: Internalization of INS-FITC in CT26 cells, flow cytometry and fluorescent imaging; assay type: cell-based, mouse
Protocol: CT26 colon cancer cells were seeded in 24-well plates at 100.000 cells/well/mL. After 24 hours, cells were treated with INS-FITC at 10 μM or 30 μM concentration either alone or in combination with the conjugate 4-hydroxybutyl L-tryptophanate in three different molar ratios (1:1, 1:3 or 3:1). Treatments were co-incubated with the CT26 cells for 1 h, 4 h or 24 h. Before observation, cells were washed several times with PBS, and with heparin, to ensure removal of compounds that might remain softly bound to cell membrane and not internalized. Then the washed cells were detached from the wells using trypsin, centrifuged and re-suspended in PBS for analysis by flow cytometry. In flow the cells were gated as singlets (single cell events) and then the fluorescence was recorded for each event in the specific FL channel were the compound has its emission max (INS-FITC: FL1 (525+/−40).

Structure (SMILES): N[C@@H](Cc1c[nH]c2ccccc12)C(=O)OCCCCO [4-hydroxybutyl L-tryptophanate]
- drop in blood sugar ([1]; insulin 1.1 mg (~80 I.U) + conjugate 8 mg, within twenty minutes, n=3): ~15%
- drop in blood sugar ([1]; insulin 1.5 mg (~120 I.U.) + conjugate 0.5 mg, within the first hour, n=2): ~20%
- enhancement of OxPt internalization versus OxPt alone (CT26 cells [2]; conjugate:OxPt 10:10 molar ratio): 37.6%
- enhancement of OxPt internalization versus OxPt alone (CT26 cells [2]; conjugate:OxPt 30:10 molar ratio): 23.5%
- internalization percentage of OxPt increased to (CT26 cells [2]; 30 μM OxPt, 10:30 ratio (Conj.:OxPt)): 451%
- Pt signal in CT26 cells compared to OxPt alone (CT26 cells [2]; combination of OxPt and the conjugate, overall): increased amount of Pt signal
- insulin signal in MALDI-TOF of cell supernatant (CT-26 cells [3]): clearly distinct
- fluorescence signal on tissue (tissue binding and transmembrane penetration) ([4]; conjugate 1 mg/ml (3.65 mM), 1 hour incubation, tissue washed, excess mucous layer removed): clear fluorescence signal
- normalized fluorescence intensities on tissue versus controls on glass ([4]; conjugate 1 mg/ml, 1 hour): higher than controls incubated on a glass sample
- penetration across mucosal layer and binding to gut epithelium despite repeated washes ([4]; pig intestine with mucus): deeply penetrate across mucosal layer on intestinal epithelium and bind to the tissue
- cellular internalization of the conjugate (Z-stack imaging, fluorescence 488 nm) (mouse CD-4 (+) T-cells): confirmed cellular internalization
- Fold increase internalization of resiquimod (R848) compared to R848 alone (CT26 cells [5]; conjugate (100 μM) + R848 (100 μM), 4 hours, listed as 4-hydroxybutyl L-tryptophanate conjugate): 4.9 fold
- Fold increase internalization of resiquimod (R848) compared to R848 alone (CT26 cells [5]; conjugate (100 μM) + R848 (100 μM), 24 hours): 0.9 fold
- Fold increase internalization of resiquimod (R848) compared to R848 alone (CT26 cells [5]; conjugate (100 μM) + R848 (300 μM), 4 hours): 1.4 fold
- Fold increase internalization of resiquimod (R848) compared to R848 alone (CT26 cells [5]; conjugate (100 μM) + R848 (300 μM), 24 hours): 1.8 fold
- Fold increase internalization of resiquimod (R848) compared to R848 alone (CT26 cells [5]; conjugate (300 μM) + R848 (100 μM), 4 hours): 1.5 fold
- Fold increase internalization of resiquimod (R848) compared to R848 alone (CT26 cells [5]; conjugate (300 μM) + R848 (100 μM), 24 hours): 1.1 fold
- % cells uptake (1 h), CT-26 cells with PTX internalized (CT-26 cells [6]; Conjugate 10 μM + PTX 10 μM, 1 h): 4.7%
- % cells uptake (4 h), CT-26 cells with PTX internalized (CT-26 cells [6]; Conjugate 10 μM + PTX 10 μM, 4 h): 6.2%
- % cells with uptake (24 h), CT-26 cells with PTX internalized (CT-26 cells [6]; Conjugate 10 μM + PTX 10 μM): 22.1%
- % cells uptake (1 h), CT-26 cells with PTX internalized (CT-26 cells [6]; Conjugate 10 μM + PTX 30 μM, 1 h): 5.0%
- % cells uptake (4 h), CT-26 cells with PTX internalized (CT-26 cells [6]; Conjugate 10 μM + PTX 30 μM, 4 h): 6.9%
- % cells with uptake (24 h), CT-26 cells with PTX internalized (CT-26 cells [6]; Conjugate 10 μM + PTX 30 μM): 29.2%
- % cells uptake (1 h), CT-26 cells with PTX internalized (CT-26 cells [6]; Conjugate 30 μM + PTX 10 μM, 1 h): 11.2%
- % cells uptake (4 h), CT-26 cells with PTX internalized (CT-26 cells [6]; Conjugate 30 μM + PTX 10 μM, 4 h): 17.6%
- % cells with uptake (24 h), CT-26 cells with PTX internalized (CT-26 cells [6]; Conjugate 30 μM + PTX 10 μM, listed as Conjugate): 49.8%
- % cells with uptake (24 h), CT-26 cells with PTX internalized (CT-26 cells [6]; Conjugate 30 μM + PTX 10 μM, listed as conjugate): up to 50%
- Percentage increase in PTX signal (MFI) compared to PTX alone; head: % cells with uptake (24 h) (CT-26 cells [6]; PTX 10 μM, Conjugate:PTX molar ratio 1:1 (10:10)): 22.3%
- Percentage increase in PTX signal (MFI) compared to PTX alone; head: % cells uptake (1 h) (CT-26 cells [6]; PTX 10 μM, Conjugate:PTX molar ratio 1:1, 1 h): 6.8%
- Percentage increase in PTX signal (MFI) compared to PTX alone; head: % cells uptake (4 h) (CT-26 cells [6]; PTX 10 μM, Conjugate:PTX molar ratio 1:1, 4 h): 12.4%
- Percentage increase in PTX signal (MFI) compared to PTX alone; head: % cells uptake (1 h) (CT-26 cells [6]; PTX 10 μM, Conjugate:PTX molar ratio 3:1 (30:10), 1 h): 20.6%
- Percentage increase in PTX signal (MFI) compared to PTX alone; head: % cells uptake (1 h) (CT-26 cells [6]; PTX 10 μM, Conjugate:PTX molar ratio 3:1 (30:10), 1 h, listed as Conjugate): 7.8%
- Percentage increase in PTX signal (MFI) compared to PTX alone; head: % cells uptake (4 h) (CT-26 cells [6]; PTX 10 μM, Conjugate:PTX molar ratio 3:1 (30:10), 4 h): 32.4%
- Percentage increase in PTX signal (MFI) compared to PTX alone; head: % cells uptake (4 h) (CT-26 cells [6]; PTX 10 μM, Conjugate:PTX molar ratio 3:1 (30:10), 4 h, listed as Conjugate): 11.4%
- Percentage increase in PTX signal (MFI) compared to PTX alone; head: % cells with uptake (24 h) (CT-26 cells [6]; PTX 10 μM, Conjugate:PTX molar ratio 3:1 (30:10)): 56.2%
- Percentage increase in PTX signal (MFI) compared to PTX alone; head: % cells with uptake (24 h) (CT-26 cells [6]; PTX 10 μM, Conjugate:PTX molar ratio 3:1 (30:10), listed as Conjugate): 27.1%
- Percentage increase in PTX signal (MFI) compared to PTX alone; head: % cells uptake (1 h) (CT-26 cells [6]; PTX 30 μM, Conjugate:PTX molar ratio 1:3 (10:30), 1 h): 20.6%
- Percentage increase in PTX signal (MFI) compared to PTX alone; head: % cells uptake (4 h) (CT-26 cells [6]; PTX 30 μM, Conjugate:PTX molar ratio 1:3 (10:30), 4 h): 32.4%
- Percentage increase in PTX signal (MFI) compared to PTX alone; head: % cells with uptake (24 h) (CT-26 cells [6]; PTX 30 μM, Conjugate:PTX molar ratio 1:3 (10:30)): 27.1%
- Percentage increase in PTX signal (MFI) compared to PTX alone; head: % cells with uptake (24 h) (CT-26 cells [6]; PTX 30 μM, Conjugate:PTX molar ratio 1:3 (10:30), listed as Conjugate): 56.2%
- internalization of Ethidium-homodimer (EtDi) (CT-26 cells [7]; EtDi 2 μl/ml co-administered with conjugate 1 mg/ml, 1 hour): confirmed; also recorded: got internalized into the cells
- increase of EtDi fluorescence (mean pixel intensity of confocal images) compared with EtDi alone (CT-26 cells [7]; EtDi combined with the conjugate): 8.67 fold
- condition of CT-26 cells and membranes after co-administration (CT-26 cells [7]; conjugate 1 mg/ml + EtDi 2 μl/ml, 1 hour): healthy with fully intact membranes
- Z-stack analysis at single cell level (CT-26 cells [7]; conjugate + EtDi): internalization of both the EtDi and conjugate
- fluorescence under fluorescent microscope (CT26 colon cancer cells; conjugate alone, post 24-hours incubation): No observable fluorescence
- percentage increase of INS-FITC internalization (MFI) compared to free insulin at the same concentration (CT26 colon cancer cells; conjugate to insulin 30:10 μM, 24 hours): around 72.3%
- percentage increase of INS-FITC internalization (MFI) (CT26 colon cancer cells; conjugate:INS-FITC 10:10 μM, 4 hours): 20.5%
- percentage increase of INS-FITC internalization (MFI) (CT26 colon cancer cells; insulin to conjugate 30:10 μM, constant from 4 to 24 hours): 11.4%
